Measured values: patent US20140357713A1, “ANTIMICROBIAL COMPOUNDS AND METHODS OF USE” (NexMed Holdings, Inc., priority 2012, published 2014)
Read-outs that look alike come from different tables or passages of the source.

Columns and labels:
[1] = system: Staphulococcus aureus (ATCC 29213); test: Minimum inhibitory concentration (MIC) assay, Example 33; assay type: cell-based, Staphylococcus aureus; settings: Staphylococcus aureus
Summary of the method: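 Antibacterial MICs come from CLSI-guided broth microdilution in CAMHB at 35° C, using a McFarland 0.5-standardized inoculum diluted 1:100 before 1:2 addition to drug wells.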

Aspergillus niger = test: Extended time kill study, Example 34 (0 to 24 h); assay type: cell-based
Experimental: (§1) Time kill studies. Strain suspensions were prepared as described above for the MIC test, and strain suspensions and compound solutions were mixed in the same volume. Samples were removed at specified times including 0 min, 30 sec, 1 min and 5 mins, were diluted in the test medium and streaked on agar. Colonies were counted after 24 to 48 hrs of incubation.
(§2) The time kill studies of Example 33 were extended for five compounds (Nex-59, Nex-60, Nex-61, Nex-62, and Nex-88) using the same methods at longer time periods and at higher multiples of MIC. Nex-88 is a code number for DDAIP.HCl from a different supplier.

Staphylococcus aureus = test: Extended time kill study, Example 34 (0 to 24 h); assay type: cell-based
Experimental: as §1, §2

Candida albicans = test: Extended time kill study, Example 34 (0 to 24 h); assay type: cell-based
Experimental: as §1, §2

[2] = Solubility (Sol., Table 1); assay type: physicochemical

Compound: CCCCCCCCCCCCOC(=O)C(C)NC(C)C.Cl (centres unmarked) [Nex-60, Dodecyl 2-(isopropylamino)propanoate hydrochloride]
- MIC ([1]; ATCC29213, Table 19 summary, read-out: MIC): 1560 µg/mL
- MIC ([1]; ATCC29213, n = 1, read-out: MIC S. aureus): 1560 µg/mL
- MIC ([1]; ATCC29213, n = 2, read-out: MIC S. aureus): 1560 µg/mL
- Viable counts in Log10 CFU/mL (Aspergillus niger; 1 × MIC, 1 h): 4.60 Log10 CFU/mL
- Viable counts in Log10 CFU/mL (Aspergillus niger; 1 × MIC, 2 h): 4.78 Log10 CFU/mL
- Viable counts in Log10 CFU/mL (Aspergillus niger; 1 × MIC, 4 h): 4.60 Log10 CFU/mL
- Viable counts in Log10 CFU/mL (Aspergillus niger; 1 × MIC, 6 h): 4.30 Log10 CFU/mL
- Viable counts in Log10 CFU/mL (Aspergillus niger; 1 × MIC, 24 h): 3.81 Log10 CFU/mL
- Viable counts in Log10 CFU/mL (Aspergillus niger; 1 × MIC, 0 h): 5.52 Log10 CFU/mL
- Viable counts in Log10 CFU/mL (Aspergillus niger; 2 × MIC, 1 h): 4.30 Log10 CFU/mL
- Viable counts in Log10 CFU/mL (Aspergillus niger; 2 × MIC, 2 h): 4.78 Log10 CFU/mL
- Viable counts in Log10 CFU/mL (Aspergillus niger; 2 × MIC, 4 h): 3.85 Log10 CFU/mL
- Viable counts in Log10 CFU/mL (Aspergillus niger; 2 × MIC, 6 h): 3.78 Log10 CFU/mL
- Viable counts in Log10 CFU/mL (Aspergillus niger; 2 × MIC, 24 h): 4.30 Log10 CFU/mL
- Viable counts in Log10 CFU/mL (Aspergillus niger; 2 × MIC, 0 h): 5.47 Log10 CFU/mL
- Viable counts in Log10 CFU/mL (Aspergillus niger; 4 × MIC, 1 h): 4.00 Log10 CFU/mL
- Viable counts in Log10 CFU/mL (Aspergillus niger; 4 × MIC, 2 h): 4.48 Log10 CFU/mL
- Viable counts in Log10 CFU/mL (Aspergillus niger; 4 × MIC, 4 h): 3.60 Log10 CFU/mL
- Viable counts in Log10 CFU/mL (Aspergillus niger; 4 × MIC, 6 h): 3 Log10 CFU/mL
- Viable counts in Log10 CFU/mL (Aspergillus niger; 4 × MIC, 24 h): <2 Log10 CFU/mL
- Viable counts in Log10 CFU/mL (Aspergillus niger; 4 × MIC, 0 h): 5.60 Log10 CFU/mL
- Viable counts, Staphylococcus aureus time kill study (Staphylococcus aureus; 1 × MIC, 1 h): 6.23 Log10 CFU/mL
- Viable counts, Staphylococcus aureus time kill study (Staphylococcus aureus; 1 × MIC, 2 h): 6.24 Log10 CFU/mL
- Viable counts, Staphylococcus aureus time kill study (Staphylococcus aureus; 1 × MIC, 4 h): 6.16 Log10 CFU/mL
- Viable counts, Staphylococcus aureus time kill study (Staphylococcus aureus; 1 × MIC, 6 h): 5.97 Log10 CFU/mL
- Viable counts, Staphylococcus aureus time kill study (Staphylococcus aureus; 1 × MIC, 24 h): 6.57 Log10 CFU/mL
- Viable counts, Staphylococcus aureus time kill study (Staphylococcus aureus; 1×MIC, time 0): 6.22 Log10 CFU/mL
- Viable counts, Staphylococcus aureus time kill study (Staphylococcus aureus; 2 × MIC, 1 h): <3 Log10 CFU/mL
- Viable counts, Staphylococcus aureus time kill study (Staphylococcus aureus; 2 × MIC, 2 h): <3 Log10 CFU/mL
- Viable counts, Staphylococcus aureus time kill study (Staphylococcus aureus; 2 × MIC, 4 h): <3 Log10 CFU/mL
- Viable counts, Staphylococcus aureus time kill study (Staphylococcus aureus; 2 × MIC, 6 h): <3 Log10 CFU/mL
- Viable counts, Staphylococcus aureus time kill study (Staphylococcus aureus; 2 × MIC, 24 h): <1 Log10 CFU/mL
- Viable counts, Staphylococcus aureus time kill study (Staphylococcus aureus; 2 × MIC, time 0): 6.20 Log10 CFU/mL
- Viable counts, Staphylococcus aureus time kill study (Staphylococcus aureus; 4 × MIC, 1 h): <3 Log10 CFU/mL
- Viable counts, Staphylococcus aureus time kill study (Staphylococcus aureus; 4 × MIC, 2 h): <3 Log10 CFU/mL
- Viable counts, Staphylococcus aureus time kill study (Staphylococcus aureus; 4 × MIC, 4 h): <3 Log10 CFU/mL
- Viable counts, Staphylococcus aureus time kill study (Staphylococcus aureus; 4 × MIC, 6 h): <3 Log10 CFU/mL
- Viable counts, Staphylococcus aureus time kill study (Staphylococcus aureus; 4 × MIC, 24 h): <1 Log10 CFU/mL
- Viable counts, Staphylococcus aureus time kill study (Staphylococcus aureus; 4 × MIC, time 0): 6.21 Log10 CFU/mL
- Viable counts in Log10 CFU/mL (Candida albicans; 1 × MIC, 1 h): 5.51 Log10 CFU/mL
- Viable counts in Log10 CFU/mL (Candida albicans; 1 × MIC, 2 h): 5.50 Log10 CFU/mL
- Viable counts in Log10 CFU/mL (Candida albicans; 1 × MIC, 4 h): 5.18 Log10 CFU/mL
- Viable counts in Log10 CFU/mL (Candida albicans; 1 × MIC, 6 h): 5.09 Log10 CFU/mL
- Viable counts in Log10 CFU/mL (Candida albicans; 1 × MIC, 24 h): >6 Log10 CFU/mL
- Viable counts in Log10 CFU/mL (Candida albicans; 1 × MIC, 0 h): 5.56 Log10 CFU/mL
- Viable counts in Log10 CFU/mL (Candida albicans; 2 × MIC, 1 h): 3.30 Log10 CFU/mL
- Viable counts in Log10 CFU/mL (Candida albicans; 2 × MIC, 2 h): 3.00 Log10 CFU/mL
- Viable counts in Log10 CFU/mL (Candida albicans; 2 × MIC, 4 h): 3.00 Log10 CFU/mL
- Viable counts in Log10 CFU/mL (Candida albicans; 2 × MIC, 6 h): <2.70 Log10 CFU/mL
- Viable counts in Log10 CFU/mL (Candida albicans; 2 × MIC, 24 h): <1 Log10 CFU/mL
- Viable counts in Log10 CFU/mL (Candida albicans; 2 × MIC, 0 h): 5.51 Log10 CFU/mL
- Viable counts in Log10 CFU/mL (Candida albicans; 4 × MIC, 1 h): 3.78 Log10 CFU/mL
- Viable counts in Log10 CFU/mL (Candida albicans; 4 × MIC, 2 h): 3.30 Log10 CFU/mL
- Viable counts in Log10 CFU/mL (Candida albicans; 4 × MIC, 4 h): 3.00 Log10 CFU/mL
- Viable counts in Log10 CFU/mL (Candida albicans; 4 × MIC, 6 h): <2.70 Log10 CFU/mL
- Viable counts in Log10 CFU/mL (Candida albicans; 4 × MIC, 24 h): <1 Log10 CFU/mL
- Viable counts in Log10 CFU/mL (Candida albicans; 4 × MIC, 0 h): 5.62 Log10 CFU/mL
- melting point: 86 to 91 °C
- Sol. [2]: 46%
